Reference: patent publication US20230399373A1, “MOLECULAR DESIGNS OF GLUCOSE-RESPONSIVE AND GLUCOSE-CLEAVABLE INSULIN ANALOGUES” (THE TRUSTEES OF INDIANA UNIVERSITY, priority 2020, published 2023)

Experiments:
Assay type in all cases: cell-based
IR [1] = experiment: 96-well plate assay of dose-dependent and ligand-selective IR autophosphorylation
Experimental: Quantitative dose-dependent and ligand-selective IR autophosphorylation were evaluated in a 96-well plate assay (FIG. 5A). FRI triggered a robust signal on addition of 50 mM fructose whereas baseline activity in the absence of fructose was low.

HepG2 cells = experiment: PCR assays of ligand-selective metabolic gene regulation (PEPCK, ChREBP, SREBP) in HepG2 cells; conditions: control studies
Experimental: Insulin-signaling in hepatocytes extends to metabolic transcriptional regulation as recapitulated in HepG2 cells. […] Control studies were undertaken in the absence of insulin analogs to assess potential confounding changes in metabolic gene expression on addition of 0 to 100 mM fructose or 0 to 100 mM glucose.

IR [2] = experiment: Western blot assays of fructose-dependent insulin signaling (IR autophosphorylation, p-AKT/AKT, p-FOXO1/FOXO1, p-GSK-3/GSK-3) in HepG2 cells; conditions: single hormone dose 50 nM
Experimental: Signal propagation was probed via a cytoplasmic kinase cascade and changes in metabolic gene expression in HepG2 cells. […] An overview of IR autophosphorylation (probed by anti-pTyr IR antibodies) and downstream phosphorylation of Ser-Thr protein kinase AKT (protein kinase B; ratio p-AKT/AKT), forkhead transcription factor 1 (p-FOXO1/FOXO1), and glycogen synthase kinase-3 (p-GSK-3/GSK-3) at a single hormone dose (50 nM) was provided by Western blot (WB; FIG. 4 D-F). […] The activity of FRI in the absence of fructose is low.

insulin lispro [KP]
IR autophosphorylation signal on addition of 50 mM fructose (IR [1]; 50 mM fructose): high signaling activity
effect of addition of 50 mM glucose on IR autophosphorylation activity (IR [1]; 50 mM glucose): did not influence
IR autophosphorylation baseline activity in the absence of fructose (IR [1]; no fructose): high signaling activity
fructose dependence of metabolic gene regulation (HepG2 cells): No fructose dependence
signaling by Western blot (IR autophosphorylation, p-AKT/AKT, p-FOXO1/FOXO1, p-GSK-3/GSK-3): dependence on fructose (IR [2]): fructose-independent signaling
